Measured values as given in PMC9942192 (ACS Synthetic Biology, 2023).

Biological target: T1, AtSWEET4 (Arabidopsis thaliana, UniProt Q944M5)
T1 sequence (Q944M5 1-251): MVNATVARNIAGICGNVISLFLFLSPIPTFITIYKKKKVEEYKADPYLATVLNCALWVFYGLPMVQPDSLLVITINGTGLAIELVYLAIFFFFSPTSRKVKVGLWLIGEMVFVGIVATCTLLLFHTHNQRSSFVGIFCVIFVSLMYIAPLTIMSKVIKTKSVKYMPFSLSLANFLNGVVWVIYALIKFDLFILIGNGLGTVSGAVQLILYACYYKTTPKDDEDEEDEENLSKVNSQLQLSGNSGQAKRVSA
Experiment: […]-radiolabeled uptake in yeast EBY4000
Type: cell-based
Conditions: labelled compound; positive control; n = 3

Compound | uptake
OCC1(O)OC[C@@H](O)[C@@H](O)[C@@H]1O (stereo partly drawn) [D-fructose] | D-mannose and D-fructose transporter AtSWEET4 serves as a positive control
OC[C@H]1OC(O)[C@@H](O)[C@@H](O)[C@@H]1O (stereo partly drawn) [D-mannose] | D-mannose and D-fructose transporter AtSWEET4 serves as a positive control
